The record followed here is patent US10385050B2, “Indolin-2-one and 1,3-dihydro-pyrrolo[3,2-c]pyridin-2-one derivatives” (Hoffmann-La Roche Inc., priority 2014, dated 2019).

As a reminder, the inhibition in vivo is the change of the read-out against control, counted positive when it falls.

One assay concerns L-687,414-induced hyperlocomotion. The experiment in a line: Reversal of L-687,414-induced hyperlocomotion (Digiscan locomotor activity). Format: in vivo, mouse. The conditions noted are these: Mus musculus, 0.5 h; dose ip 30 mg/kg at the same time as s.c. 50 mg/kg L-687,414; horizontal activity over 30 min. The text has this: The authors described that hyperlocomotion induced by L-687,414 was inhibited by a series of known antipsychotic drugs. […] These findings predict antipsychotic activity for the present compounds, making them useful for the treatment of positive (psychosis) and negative symptoms of schizophrenia, substance abuse, alcohol and drug addiction, obsessive-compulsive disorders, cognitive impairment, bipolar disorders, mood disorders, major depression, resistant depression, anxiety disorders, Alzheimer's disease, autism, Parkinson's disease, chronic pain, borderline personality disorder, sleep disturbances, chronic fatigue syndrome, stiffness, antiinflammatory effects in arthritis and balance problems.
The described compounds of formula I reduce L-687,414-induced hyperlocomotion. This was assessed by using a computerized Digiscan 16 Animal Activity Monitoring System (Omnitech Electronics, Columbus, Ohio) to quantify locomotor activity. Animals were kept under a 12 h light/dark cycle and experiments were performed during the light period. Each activity monitoring chamber consisted of a Plexiglas box (41×41×28 cm; W×L×H) with sawdust bedding on the floor surrounded by invisible horizontal and vertical infrared sensor beams. The test boxes were divided by a Plexiglas cross providing each mouse with 20×20 cm of moving space. Cages were connected to a Digiscan Analyzer linked to a computer that constantly collected the beam status information. Records of photocell beam interruptions for individual animals were taken every 5 min over the duration of the experimental session and the sum of the first 6 periods was used as the final parameter. Compounds were administered either p.o. 15 min before a s.c. injection of 50 mg/kg of L-687,414, or i.p. at the same time as a s.c. injection of 50 mg/kg of L-687,414. Mice were then transferred from their home cage to the recording chambers for a 15-min habituation phase allowing free exploration of the new environment. Horizontal activity was then recorded for a 30-min time period. The % inhibition of L-687,414-induced hyperlocomotion was calculated according to the equation: ((Veh+L-687,414 horizontal activity−drug+L-687,414 horizontal activity)/Veh+L−687,414 horizontal activity)×100
ID50 values, defined as doses of each compound producing 50% inhibition of L-687,414-induced hyperlocomotion, were calculated by linear regression analysis of a dose-response data using an Excel-based computer-fitting program.
As data was not presupposed to be normally distributed, groups treated with test compounds were statistically compared with the control (vehicle-treated) group using one-tailed Mann Whitney U tests. In statistics, the Mann-Whitney U test (also called the Mann-Whitney-Wilcoxon (MWW) or Wilcoxon rank-sum test) is a non-parametric statistical hypothesis test for assessing whether one of two samples of independent observations tends to have larger values than the other. It is one of the most well-known non-parametric significance tests. […] P values given in table 1 are one-tailed since only decreases in locomotion were expected and tested for (Mann, H. B., Whitney, D. R. (1947), “On a Test of Whether one of Two Random Variables is Stochastically Larger than the Other”, Annals of Mathematical Statistics, 18 (1), 50-60).
As to `CN1C(=O)C(C)(C)c2ccc(-c3cnc(-c4ccncc4)[nH]3)cc21` [Example 3, 1,3,3-Trimethyl-6-(2-(pyridin-4-yl)-1H-imidazol-5-yl)indolin-2-one], the inhibition in vivo at 30 mg/kg stood at 58.9%.

For `CN1C(=O)C(C)(C)c2ccc(-c3cnc(-c4cccnc4)o3)cc21` [Example 7, 1,3,3-Trimethyl-6-(2-(pyridin-3-yl)oxazol-5-yl)indolin-2-one], the inhibition in vivo at 30 mg/kg is 83.9%.

Turning to `CC1(C)C(=O)N(C2CC2)c2cc(-c3cnc(-c4cccnc4)o3)ccc21` [Example 8, 1-Cyclopropyl-3,3-dimethyl-6-(2-(pyridin-3-yl)oxazol-5-yl)indolin-2-one], the inhibition in vivo at 30 mg/kg worked out at 80.5%.

Regarding `CC1(C)C(=O)N(C2CC2)c2cc(-c3cnc(-c4ccncc4)o3)ccc21` [Example 10, 1-Cyclopropyl-3,3-dimethyl-6-(2-(pyridin-4-yl)oxazol-5-yl)indolin-2-one], the inhibition in vivo at 30 mg/kg stood at 78.8%.

In the case of `CC1(C)C(=O)N(C2COC2)c2cc(-c3nnc(-c4ccncc4)o3)ccc21` [Example 11, 3,3-Dimethyl-1-(oxetan-3-yl)-6-(5-(pyridin-4-yl)-1,3,4-oxadiazol-2-yl)indolin-2-one], the inhibition in vivo at 30 mg/kg turned out to be 80.9%.

For the molecule `Cc1cc(-c2cnc(-c3ccc4c(c3)N(C3CC3)C(=O)C4(C)C)o2)ccn1` [Example 19, 1-Cyclopropyl-3,3-dimethyl-6-(5-(2-methylpyridin-4-yl)oxazol-2-yl)indolin-2-one], the inhibition in vivo at 30 mg/kg turned out to be 55.9%.

In the case of `CN1C(=O)C(C)(C)c2ccc(-n3cnc(-c4ccncc4)c3)cc21` [Example 20, 1,3,3-Trimethyl-6-(4-(pyridin-4-yl)-1H-imidazol-1-yl)indolin-2-one], the inhibition in vivo at 30 mg/kg amounted to 64.4%.

With `Cc1cc(-c2ncc(-c3ccc4c(c3)N(C)C(=O)C4(C)C)o2)ccn1` [Example 22, 1,3,3-Trimethyl-6-(2-(2-methylpyridin-4-yl)oxazol-5-yl)indolin-2-one], the inhibition in vivo at 30 mg/kg amounted to 55.9%.

Turning to `CN1C(=O)C(C)(C)c2ccc(-n3cc(-c4cccnc4)cn3)cc21` [Example 41, 1,3,3-Trimethyl-6-(4-(pyridin-3-yl)-1H-pyrazol-1-yl)indolin-2-one], the inhibition in vivo at 30 mg/kg is 50.3%.

Take `CC1(C)C(=O)N(C2COC2)c2cc(-n3cc(-c4cccnc4)cn3)ccc21` [Example 43, 3,3-Dimethyl-1-(oxetan-3-yl)-6-(4-(pyridin-3-yl)-1H-pyrazol-1-yl)indolin-2-one]: the inhibition in vivo at 30 mg/kg was 47.3%.

In the case of `CN1C(=O)C(C)(C)c2ccc(-c3coc(-c4cccnc4)n3)cc21` [Example 44, 1,3,3-Trimethyl-6-(2-(pyridin-3-yl)oxazol-4-yl)indolin-2-one], the inhibition in vivo at 30 mg/kg amounted to 52.1%.

`CN1C(=O)C(C)(C)c2ccc(-c3cnn(-c4cccnc4)c3)cc21` [Example 50, 1,3,3-Trimethyl-6-(1-(pyridin-3-yl)-1H-pyrazol-4-yl)indolin-2-one]: the inhibition in vivo at 30 mg/kg was 44%.

Turning to `CC1(C)C(=O)Nc2cc(-n3cc(-c4cccnc4)cn3)ccc21` [Example 51, 3,3-Dimethyl-6-(4-(pyridin-3-yl)-1H-pyrazol-1-yl)indolin-2-one], the inhibition in vivo at 30 mg/kg stood at 61%.

Turning to `CC1(C)C(=O)N(C2CC2)c2cc(-n3cc(-c4cccnc4)cn3)ccc21` [Example 52, 1-Cyclopropyl-3,3-dimethyl-6-(4-(pyridin-3-yl)-1H-pyrazol-1-yl)indolin-2-one], the inhibition in vivo at 30 mg/kg came to 82.1%.

With `Cc1cc(-c2cnn(-c3ccc4c(c3)N(C)C(=O)C4(C)C)c2)ccn1` [Example 54, 1,3,3-Trimethyl-6-(4-(2-methylpyridin-4-yl)-1H-pyrazol-1-yl)indolin-2-one], the inhibition in vivo at 30 mg/kg stood at 41.6%.

With `Cc1cc(-c2cnn(-c3ccc4c(c3)N(C3CC3)C(=O)C4(C)C)c2)ccn1` [Example 55, 1-Cyclopropyl-3,3-dimethyl-6-(4-(2-methylpyridin-4-yl)-1H-pyrazol-1-yl)indolin-2-one], the inhibition in vivo at 30 mg/kg was 42.7%.

For `CN1C(=O)C(C)(C)c2ccc(-n3cc(-c4ccncc4)nn3)cc21` [Example 57, 1,3,3-Trimethyl-6-(4-(pyridin-4-yl)-1H-1,2,3-triazol-1-yl)indolin-2-one], the inhibition in vivo at 30 mg/kg was determined as 89.2%.

`COc1cnccc1-c1ncc(-c2ccc3c(c2)NC(=O)C3(C)C)o1` [Example 63, 6-(2-(3-Methoxypyridin-4-yl)oxazol-5-yl)-3,3-dimethylindolin-2-one]: the inhibition in vivo at 30 mg/kg is 75%.

In the case of `Cc1ccc(-c2cnn(-c3ccc4c(c3)N(C3CC3)C(=O)C4(C)C)c2)cn1` [Example 69, 1-Cyclopropyl-3,3-dimethyl-6-(4-(6-methylpyridin-3-yl)-1H-pyrazol-1-yl)indolin-2-one], the inhibition in vivo at 30 mg/kg was found to be 53.3%.

As to `Cc1cc(-n2cnc(-c3ccc4c(c3)N(C3CC3)C(=O)C4(C)C)c2)ccn1` [Example 74, 1-Cyclopropyl-3,3-dimethyl-6-(1-(2-methylpyridin-4-yl)-1H-imidazol-4-yl)indolin-2-one], the inhibition in vivo at 30 mg/kg stood at 71.4%.

For the molecule `Cc1nc(-c2ccc3c(c2)N(C)C(=O)C3(C)C)cn1-c1ccncc1` [Example 77, 1,3,3-Trimethyl-6-(2-methyl-1-(pyridin-4-yl)-1H-imidazol-4-yl)indolin-2-one], the inhibition in vivo at 30 mg/kg came to 89.4%.

For the molecule `Cc1ccc(-c2cc(-c3ccc4c(c3)N(C)C(=O)C4(C)C)n[nH]2)cn1` [Example 80, 1,3,3-Trimethyl-6-(5-(6-methylpyridin-3-yl)-1H-pyrazol-3-yl)indolin-2-one], the inhibition in vivo at 30 mg/kg is 62.6%.

As to `Cc1cnccc1-n1cnc(-c2ccc3c(c2)N(C)C(=O)C3(C)C)c1` [Example 88, 1,3,3-Trimethyl-6-(1-(3-methylpyridin-4-yl)-1H-imidazol-4-yl)indolin-2-one], the inhibition in vivo at 30 mg/kg turned out to be 93.1%.

Staying with this assay, now noted: dose ip 30 mg/kg at the same time as s.c. 50 mg/kg L-687,414; horizontal activity over 30 min.
“1,3,3-Trimethyl-6-(3-pyridin-4-yl-isoxazol-5-yl)-1,3-dihydro-indol-2-one [Example 42]”: the “Inhibition, ip” value was 58.4%.

“1,3,3-Trimethyl-6-(4-(pyridin-3-yl)-1H-imidazol-1-yl)indolin-2-one [Example 29]”: the “Inhibition, ip” value was 80.3%.

As to “1-Cyclopropyl-3,3-dimethyl-6-(2-(2-methylpyridin-4-yl)oxazol-5-yl)indolin-2-one [Example 12]”, the “Inhibition, ip” value is 49.1%.

With “3,3-Dimethyl-6-[1-(2-methyl-4-pyridyl)imidazol-4-yl]-1-(2-methylpyrimidin-5-yl)indolin-2-one [Example 113]”, the “Inhibition, ip” value was found to be 69.9%.

Regarding “6-[1-(3-Fluoro-4-pyridyl)imidazol-4-yl]-3,3-dimethyl-1-(2-methylpyrimidin-5-yl)indolin-2-one [Example 110]”, the “Inhibition, ip” value is reported as 85.4%.

The same assay, now with this note: dose producing 50% inhibition of L-687,414-induced hyperlocomotion; p.o. 15 min before s.c. 50 mg/kg L-687,414; doses 1-3-10 (Expl. 2: 3-10-30) mg/kg.
Consider `CN1C(=O)C(C)(C)c2ccc(-c3ncc(-c4ccccc4)[nH]3)cc21` [Example 2, 1,3,3-Trimethyl-6-(5-phenyl-1H-imidazol-2-yl)indolin-2-one], for which the ID50 po was found to be 10.71 mg/kg.

For the molecule `Cc1ccc(-c2ncc(-c3ccc4c(c3)N(C3CC3)C(=O)C4(C)C)o2)cn1` [Example 33, 1-Cyclopropyl-3,3-dimethyl-6-(2-(6-methylpyridin-3-yl)oxazol-5-yl)indolin-2-one], the ID50 po is reported as 3.36 mg/kg.

With `Cc1cc(-c2nnc(-c3ccc4c(c3)N(C3COC3)C(=O)C4(C)C)o2)ccn1` [Example 49, 3,3-Dimethyl-6-(5-(2-methylpyridin-4-yl)-1,3,4-oxadiazol-2-yl)-1-(oxetan-3-yl)indolin-2-one], the ID50 po came to 5.02 mg/kg.

For the molecule `CN1C(=O)C(C)(C)c2ccc(-c3cn(-c4ccncc4F)cn3)cc21` [Example 73, 6-(1-(3-Fluoropyridin-4-yl)-1H-imidazol-4-yl)-1,3,3-trimethylindolin-2-one], the ID50 po is on record as 2.97 mg/kg.

Regarding `CC1(C)C(=O)N(C2CC2)c2cc(-c3cn(-c4ccncc4F)cn3)ccc21` [Example 76, 1-Cyclopropyl-6-(1-(3-fluoropyridin-4-yl)-1H-imidazol-4-yl)-3,3-dimethylindolin-2-one], the ID50 po is listed as <1 mg/kg.
